The source of these data is patent publication US20100249238A1, “PHARMACEUTICAL COMPOSITIONS COMPRISING SEMICARBAZONES AND THIOSEMICARBAZONES AND METHOD FOR TREATING INFLAMMATORY, PAINFUL AND FEBRILE CONDITIONS AND PREVENTING SIGNS AND SYMPTOMS OF INFLAMMATION” (priority 2007, published 2010).

Series [1] deals with mechanical allodynia induced by carrageenan. In words: mechanical allodynia induced by carrageenan in rats (nylon filament). In kind it is in vivo. As to conditions: 50 mg/kg i.p. -30 min, 100 or 200 mg/kg oral -60 min. Here is the method:
(§1) In the model of thermal allodynia, the latency for paw removal after application of a thermal stimulus is assessed in the Hargreaves apparatus (model 7370, Ugo Basile, Italy). In the model of mechanical allodynia, the frequency of paw withdrawal to a series of ten touches with a nylon filament to the plantar surface of the right hind paw is determined. Dimethyl sulfoxide (DMSO) 25%+Tween 80 10% in saline was the vehicle used for intraperitoneal administration and carboxymethylcellulose 0.5%, a pharmaceutically acceptable excipient, was used for oral administration. Thirty or 60 min after intraperitoneal or oral administration, respectively, carrageenan (1%, 50 μl, suspended in saline) was injected into the plantar surface of the right hindpaw and the latency for paw removal after application of a thermal stimulus or the frequency of paw withdrawal to the mechanical stimulus was evaluated as described.

Series [2] has as its system nociceptive response induced by formaldehyde. The series can be described thus: nociceptive response induced by formaldehyde in mice. The series is classed as in vivo. Here is the method: In the nociceptive response induced by formaldehyde (0.92%, 20 μL), the inflammatory stimulus is injected subcutaneously into the dorsum of the right hind paw of male Swiss mice. The time the animal spent licking its injected paw was determined from 0 to 5 min (first phase) and from 15 to 30 min (second phase) after formaldehyde injection. Dimethyl sulfoxide (DMSO) 25%+Tween 80 10% in saline was the vehicle used for intraperitoneal administration and carboxymethylcellulose 0.5%, a pharmaceutically acceptable excipient, was used for oral administration. Thirty or 60 min after intraperitoneal or oral administration, respectively, formaldehyde was injected and the nociceptive behavior evaluated as described.

The test system of series [3] is cell migration induced by carrageenan. The series can be described thus: cell migration induced by intraperitoneal injection of carrageenan in rats. The series is classed as in vivo. As to conditions: 200 mg/kg oral -60 min. The protocol: In this model, carrageenan (500 μg, 1 ml, suspended in saline) is injected into the peritoneal cavity of rats. After three hours, the animals are euthanized and 10 ml phosphate buffer are injected into the peritoneal cavity. The peritoneal lavage is removed and the centrifuged. The supernatant is removed and the pellet is suspended in a 2 ml of phosphate buffer. An aliquot of 20 μl is added to a 400 μl Turk's solution. The number of cells is determined by microscopy.
Carboxymethylcellulose 0.5%, a pharmaceutically acceptable excipient, was used for oral administration. BS (200 mg/kg, oral, −60 min) inhibited cell migration induced by carrageenan.

In series [4] the test system is nociceptive response induced by heat. In words: nociceptive response induced by heat in the hot plate model. In kind it is in vivo. As to conditions: mice; 54° C.; 10, 25 or 50 mg/kg i.p. -30 min; 100 or 200 mg/kg oral -60 min. The protocol: In this model, the mice were exposed to a heat metal surface (54° C.) and the latency for licking the paws or jumping off the plate was determined. Dimethyl sulfoxide (DMSO) 25%+Tween 80 10% in saline was the vehicle used for intraperitoneal administration and carboxymethylcellulose 0.5%, a pharmaceutically acceptable excipient, was used for oral administration. Thirty or 60 min after intraperitoneal or oral administration, respectively, the mice were exposed to the hot plate and the latency for displaying the nociceptive behavior was determined as described.

The test system of another series is rats. The series can be described thus: oral acute toxicity, OECD 420 fixed-dose procedure. In kind it is in vivo. The protocol:
(§2) Toxicological studies were based on established protocols (OECD Test Guidelines) internationally recognized as a reference standard tool for chemical tests.
Only one dose of substances (300 mg/kg or 2000 mg/kg) was administered orally in rats. A careful observation of the rats was made 30 minutes later and repeated hourly up to 12 h. […] After that, the animals were euthanised and submitted to macroscopic and microscopic necropsy.
(§3) Laboratory analyses for acute (macroscopic and microscopic analyses) and subacute (macroscopic and microscopic analyses, biochemical and hematologic analysis) toxicity tests were carried out.

Series [5] has as its system febrile response induced by endotoxin of E. coli. The series can be described thus: febrile response induced by bacterial endotoxin in rats. The series is classed as in vivo. As to conditions: 200 mg/kg oral -60 min. The protocol: In this model, endotoxin of E. coli (50 μg/kg) is injected intravenously in rats and the colonic temperature is determined during 6 h.
Carboxymethylcellulose 0.5%, a pharmaceutically acceptable excipient, was used for oral administration. BS (200 mg/kg, oral, −60 min) inhibited the febrile response induced by endotoxin.

The next series deals with motor activity. The series can be described thus: motor activity of mice in a rotarod. In kind it is in vivo. As to conditions: Swiss male mice; 10, 25 or 50 mg/kg intraperitoneal (30 min) or 100 or 200 mg/kg oral (60 min). The protocol: The effect of BS on motor activity of Swiss male mice (20-30 g) was evaluated in order to investigate whether inhibition of nociceptive behavior in animals treated with BS would be a result of a central depressive effect. Their motor activity was evaluated in a rotarod. A day before the experiment, the mice were trained in the apparatus. During the experiment, they were put in a rotarod (14 rpm) and the time they stayed in the apparatus was determined. One minute was the cut-off time. After basal measurements, the animals were treated with BS (10, 25 or 50 mg/kg, intraperitoneal or 100 or 200 mg/kg, oral). Dimethyl sulfoxide (DMSO) 25%+Tween 80 10% in saline was the vehicle used for intraperitoneal administration and carboxymethylcellulose 0.5%, a pharmaceutically acceptable excipient, was used for oral administration. Thirty or 60 min after intraperitoneal or oral administration, respectively, the animals were evaluated again in the rotarod apparatus.

Series [6] can be described thus: oral subacute toxicity, OECD 407 repeated dose 28 days, body weight. In kind it is in vivo, rats. As to conditions: for Final body mass / Initial body mass: BS, mean ± sem. The protocol:
as §2
The OECD 407 guideline—Repeated-dose Procedure for Assessing Oral Subacute Toxicity (OECD, 1995) was used. The test substance was administered orally daily (from 11:00 am to 1:00 pm) during 28 days. The animals were observed daily during the whole period. Doses of 100, 300, 500 mg/kg for BS were used.
as §3

Series [7] concerns paw edema induced by carrageenan. The series can be described thus: paw edema induced by carrageenan in rats. The note with it: 50 mg/kg i.p. -30 min or 200 mg/kg oral -60 min. The series is classed as in vivo. Here is the method:
The paw edema was assessed using a pletismometer (model 7140, Ugo Basile, Italy). The basal paw volume was determined before any treatment and the edema was induced by intraplantar injection of carrageenan into the right hindpaw (1%, 50 μl, suspended in saline). Dimethyl sulfoxide (DMSO) 25%+Tween 80 10% in saline was the vehicle used for intraperitoneal administration and carboxymethylcellulose 0.5%, a pharmaceutically acceptable excipient, was used for oral administration. Thirty or 60 min after intraperitoneal or oral administration, respectively, carrageenan (1%, 50 μl, suspended in saline) was injected and the paw edema was evaluated as described.

Series [8] concerns fibrovascular tissue formation induced by cotton. In words: fibrovascular tissue formation induced by subcutaneous cotton implant. In kind it is in vivo, mice. The note with it: 200 mg/kg per day, per os, 7 days; cotton pellet. The protocol:
In the model of fibrovascular tissue formation, a cotton pellet (10 mg) is subcutaneously implanted in the back of mice. After seven days, the mice are euthanized and the cotton pellet involved plus the surrounding fibrovascular tissue is removed and its mass determined. Carboxymethylcellulose 0.5%, a pharmaceutically acceptable excipient, was used for oral administration. BS (200 mg/kg·day, oral) was administered during seven days. Twenty-four hours after the last administration, the animals were euthanised and the mass of the cotton pellet plus the surrounding fibrovascular tissue was determined as described.

Series [9] has as its system thermal allodynia induced by carrageenan. The series can be described thus: thermal allodynia induced by carrageenan in rats (Hargreaves apparatus). The series is classed as in vivo. As to conditions: 50 mg/kg i.p. -30 min, 100 or 200 mg/kg oral -60 min. The protocol:
as §1

Series [10] relates to nociceptive response induced by formaldehyde. As to conditions: compared with first phase; Blackburn-Munro et al., Eur. J. Pharmacol. 445, 231, 2002; cited from earlier work.
The mark [11] stands for this setting: females, Satellite group, n = 5.

Structures are written as SMILES. Where two headings read alike, the source gives them in different places. Marks after values point to notes of the source that are not given here.

As to `NC(=O)NN=Cc1ccccc1` [BS, benzaldehyde semicarbazone], the “mechanical allodynia induced by carrageenan” value in series [1] is on record as “inhibited”. In addition, in series [2] (50 mg/kg intraperitoneal, only this dose, 0 to 5 min), the “first phase of the nociceptive response induced by formaldehyde” value was “inhibited”. For the same molecule, the “second phase of the nociceptive response induced by formaldehyde” value (from here on “second phase”) in series [2] (10, 25 or 50 mg/kg i.p. or 100 or 200 mg/kg oral, 15 to 30 min) was “markedly inhibited”. Moreover, the “cell migration induced by carrageenan” value in series [3] is recorded as “inhibited”. In series [4], the “antinociceptive effect in the hot plate model” value is on record as “did not induce an antinociceptive effect”. Also, in the series on rats (300 mg/kg, 30' - 9 h), the “Observed signs: general activity score (normal 4)” value is reported as “General activity (3),”. The “Observed signs: grooming score (normal 0)” value in the series on rats (300 mg/kg, 30' - 9 h) was “grooming (1)”. In addition, the Observed signs result with rats (300 mg/kg, 9 h - 14th day) was “No toxicity signs”; with rats (2000 mg/kg, from the 2nd day) it was “No toxicity signs”. Also, the “Observed signs: ataxia score (normal 0)” value in the series on rats (2000 mg/kg, 30' - 12 h) was 4. Besides, the “Observed signs: cage corner score (normal 0)” value with rats (2000 mg/kg, 30' - 12 h) is 1. Also, in the series on rats (2000 mg/kg, 30' - 12 h), the “Observed signs: piloerection score (normal 0)” value is on record as “piloerection (1),”. Also, the “Observed signs: prostration score (normal 0)” value in the series with rats (2000 mg/kg, 30' - 12 h) is on record as “prostration (3)”. In the series on rats (from a death at the highest dose (2.000 mg/kg) in the acute toxicity test), the “category in the Globally Harmonized System for the Classification and Labeling of Chemicals” value turned out to be 5. Moreover, the “signs in the acute toxicity test” value with rats (rats, 300 mg/kg oral single dose, reversible after few hours) was “reduction of motor activity and grooming”. The “reversibility of signs of toxicity” value in the series on rats (rats, 2000 mg/kg oral single dose) is “second day”. In addition, the “T/M = number of rats treated/number of deaths” value in the series with rats (single oral dose 300 mg/kg) was 5/0; in the series with rats (single oral dose 2000 mg/kg), 5/1*. Besides, the “febrile response induced by endotoxin” value in series [5] is given as “inhibited”. Also, the “motor activity (time stayed in the rotarod)” value with motor activity was “did not alter the motor activity”. Further, the Final body mass in [6] (setting [11]) is reported as 197.27 ± 14.44^AB; in series [6] (females, dose 100, 28 days, n = 5), 230.30 ± 15.42^A; in series [6] (females, dose 300, 28 days, n = 5) it was 208.38 ± 24.28^AB; in [6] (females, dose 500, 28 days, n = 5), 170.00 ± 17.22^B; in series [6] (males, Satellite group, death of an animal during treatment), 222.57 ± 29.34^B*; in series [6] (males, dose 100, 28 days, n = 5), 340.20 ± 50.91^A. Besides, the Final body mass in series [6] (males, dose 300, 28 days, n = 5) is 258.53 ± 25.76^B; in [6] (males, dose 500, 28 days, n = 5) it was 240.00 ± 46.65^B. In addition, the Initial body mass in series [6] (setting [11]) is recorded as 198.10 ± 15.06^A; in series [6] (females, dose 100, n = 5) it was 207.60 ± 12.62^A; in series [6] (females, dose 300, n = 5), 192.30 ± 13.34^A; in series [6] (females, dose 500, n = 5), 196.60 ± 8.20^A; in series [6] (males, Satellite group, n = 5) it was 197.00 ± 4.51^A; in series [6] (males, dose 100, n = 5) it was 240.87 ± 20.07^A. Besides, the Initial body mass in [6] (males, dose 300, n = 5) is reported as 192.50 ± 8.32^A; in series [6] (males, dose 500, n = 5), 225.30 ± 34.72^A. In [6] (rats, higher doses, oral daily 28 days), the body weight gain result was “reduced body weight gain”. Moreover, the “paw edema induced by carrageenan” value in series [7] was “inhibited”. Further, the fibrovascular tissue formation result in series [8] was “inhibited”. The “thermal allodynia induced by carrageenan” value in series [9] is recorded as “inhibited”.
Consider `NC(=O)N1c2ccccc2C=Cc2ccccc21` [carbamazepine], for which the “second phase” value in series [10] was “inhibit more effectively the second phase”.
With `Nc1nnc(-c2cccc(Cl)c2Cl)c(N)n1` [lamotrigine], the “second phase” value in series [10] is listed as “inhibit more effectively the second phase”.
As to `O=C1NC(=O)C(c2ccccc2)(c2ccccc2)N1` [phenyloin], the “second phase” value in series [10] is “inhibit more effectively the second phase”.
